What was measured:
human LXRalpha = target: T1, human LXRalpha (Homo sapiens, UniProt Q13133); assay: Transactivation (reporter gene) assay, GAL4-LXRalpha LBD luciferase in U2/OS cells; format: cell-based; details: U2/OS osteosarcoma cells, 48 h; T0901317 at 1 μM as 100% control
T1 construct: human LXRalpha (amino acid 205-447); expressed in transfected cells; host or cells: U2/OS osteosarcoma cells, electroporated with pSGGAL-LXRalpha
T1 sequence (Q13133 205-447): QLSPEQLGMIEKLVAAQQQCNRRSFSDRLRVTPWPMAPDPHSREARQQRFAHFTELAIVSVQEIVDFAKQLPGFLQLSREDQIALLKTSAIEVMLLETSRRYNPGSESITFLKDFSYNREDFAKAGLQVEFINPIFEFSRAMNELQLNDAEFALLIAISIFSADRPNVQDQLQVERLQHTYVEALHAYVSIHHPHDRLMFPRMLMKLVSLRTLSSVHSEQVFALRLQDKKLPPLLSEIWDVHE
Description: (§1) Expression vectors were prepared by inserting the ligand binding domain cDNA (complementary DNA) of human LXRalpha (amino acid 205447) and LXRbeta (amino acid 216-461) in frame with, 3′ to the yeast GAL4 transcription factor DNA binding domain and the nuclear localization signal from the T-antigen of Polyoma Virus in the eucaryotic expression vector pSG5 (Stratagene). The resulting expression vectors pSGGAL-LXRalpha and pSGGAL-LXRbeta were used in cotransfection experiments together with the pGL3 luciferase reporter plasmid containing a minirnal SV40 promoter and five copies of the UAS GAL4 recognition site. 2.5 μg pSGGAL-LXRalpha or beta were mixed with 25 μg pGL3 5×UAS and 22.5 μg pBluscript in 0.95 mL ice cold PBS containing approx. 4-9 milj. U2/OS osteosarcoma cells. After a five minute incubation on ice the cell/DNA mixture was electroporated in 0.4 cm cuvettes at 960 μF, 230 V using a BioRad electroporator and diluted to 0.32 milj cells/mL in complete DMEM (Dulbecco's Modified Eagle Medium) medium (Gibco 31966-021). Cells from at least two electroporations were pooled in order to avoid variations between different electroportations. […] Luciferase activity was measured using the “Luminescence 384 protocol” in the Wallac Victor reader after 15 min. incubation at room temperature. […]

human LXRbeta = target: T2, human LXRbeta (Homo sapiens, UniProt P55055); assay: Transactivation (reporter gene) assay, GAL4-LXRbeta LBD luciferase in U2/OS cells; format: cell-based; details: U2/OS osteosarcoma cells, 48 h; T0901317 at 1 μM as 100% control
T2 construct: LXRbeta (amino acid 216-461); expressed in transfected cells; host or cells: U2/OS osteosarcoma cells, electroporated with pSGGAL-LXRbeta
T2 sequence (P55055 215-460 limits assumed): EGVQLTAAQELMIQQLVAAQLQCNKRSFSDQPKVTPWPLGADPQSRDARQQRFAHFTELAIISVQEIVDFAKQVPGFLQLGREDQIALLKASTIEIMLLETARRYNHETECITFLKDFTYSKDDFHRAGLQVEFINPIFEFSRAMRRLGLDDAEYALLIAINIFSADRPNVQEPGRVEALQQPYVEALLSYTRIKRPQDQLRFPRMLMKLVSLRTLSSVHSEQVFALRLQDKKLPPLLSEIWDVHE
Description: as §1

EC50 (human LXRalpha): 280 nM
EC50 (human LXRbeta): 320 nM
SMILES: Nc1ccc(CN2C(=O)C(Nc3ccc(OC(F)F)cc3)=C(c3ccccc3)C2=S)cn1 [Example 1, 1-[(6-aminopyridin-3-yl)methyl]-3-{[4-(difluoromethoxy)phenyl]amino}-4-phenyl-5-thioxo-1,5-dihydro-2H-pyrrol-2-one]

Source: patent publication US20080255207A1, “5-Thioxo-1,5-Dihydro-2H-Pyrrol-2-One Derivatives As Liver X Receptor Modulators” (ASTRAZENECA AB, priority 2005, published 2008)
